Here are results for one molecule from publication PMC10184130.

Data set [1] concerns the target T1, Human Multidrug Resistance 1 (MDR-1) Expressing Cells (Homo sapiens, UniProt P08183).
T1 construct: expressed in transfected cells
Briefly: Membrane permeability with human MDR-1 expressing cells. The format is in vitro ADME. The conditions noted are these: supplementary csv. The method, then:
(§1) The transcellular transport study was performed as reported previously.[31] In brief, the cells were grown in an HTS Transwell 96-well permeable support (pore size of 0.4 μm, 0.143 cm^2 surface area) with a polyethylene terephthalate membrane (Corning Life Sciences, Lowell, MA, USA) at a density of 1.125 × 10^5 cells/well. The cells were preincubated with M199 at 37 °C for 30 min. Subsequently, transcellular transport was initiated by the addition of M199 to apical compartments containing 1 μmol/L test compounds and terminated by the removal of each assay plate after 2 h. The aliquots in the opposite compartments were subjected to measurement for compound concentration by LC–MS/MS. Permeability was calculated using the permeated compound concentration.

In a further data set the target is T2, MDR1 (P-gp) (Homo sapiens, UniProt P08183).
T2 construct: expressed in transfected cells
The description is as above. The format is in vitro ADME. The conditions noted are these: human; MDR1-expressing cells, 1 μmol/L, 2 h. The method, then: as §1

Data set [2] is described as follows: Pharmacokinetics analysis in mice (oral; plasma and brain). The conditions noted are these: for AUC0-24h / Cmax / MRT: plasma; for concentration at 2 h / Kp at 2 h / concentration at 24 h: male, C57BL/6J, mouse, brain; for Kp at 2 h: read-out: Brain to plasma ratio 2 h. The format is in vivo. How it is done: Male C57BL/6J mice were purchased from The Jackson Laboratory Japan, Inc. (Kanagawa, Japan). […] The compound was dissolved in 10% DMSO/10% Cremophor EL/20% PEG400/60% 0.1 mol/L citric acid solution and administered orally at doses of 10, 30, or 100 mg/kg. Blood samples were collected into heparinized tubes at the designated time points (0.5, 1, 2, 4, 8, and 24 h postdosing), and brains were also collected at 2 and 24 h postdosing. Plasma was separated from the blood samples by centrifugation. The plasma and brain concentrations were quantified with high-performance liquid chromatography–tandem mass spectrometry. The lower limit of quantitation was 1 ng/mL for plasma and 5 ng/mL for brains.

For a further data set, the target named is T3, human factor D (Homo sapiens, UniProt P00746).
T3 construct: Recombinant human factor D (26–253 aa) fused with both the N-terminal IgG signal peptide; IgG signal peptide (N); His tag (C); made in house; host or cells: Expi293 cells
T3 sequence (P00746 26-253): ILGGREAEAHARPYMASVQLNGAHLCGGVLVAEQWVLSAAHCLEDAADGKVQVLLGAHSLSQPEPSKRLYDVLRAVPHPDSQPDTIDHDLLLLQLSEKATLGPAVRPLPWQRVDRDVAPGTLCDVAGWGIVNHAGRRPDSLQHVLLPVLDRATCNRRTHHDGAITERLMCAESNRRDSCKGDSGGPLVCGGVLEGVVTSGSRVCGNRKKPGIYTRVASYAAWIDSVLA
The experiment in a line: Human factor D enzyme assay. The data set is classed as biochemical. The conditions noted are these: supplementary csv. The source says:
Recombinant human factor D (26–253 aa) fused with both the N-terminal IgG signal peptide and the C-terminal His tag was expressed in Expi293 cells and purified. The human factor D assay condition was the same as for human MASP2, except that the enzyme solution concentration was 20 nmol/L and the substrate solution contained a 400 μmol/L Z-Lys-SBzl peptide and 50 μmol/L BES-Thio.

The next data set deals with human trypsin. Briefly: Human trypsin enzyme assay. The data set is classed as biochemical. The conditions noted are these: supplementary csv. The method, then:
Recombinant human trypsin (FUJIFILM Wako, Osaka, Japan) and the substrate were diluted in an assay buffer [50 mmol/L Tris–HCl (pH 7.5), 145 mmol/L NaCl, 2 mmol/L CaCl2, and 0.01% (w/v) Tween 20]. After 20 nL of compound solution was added to a 384-well black plate, 3 μL of substrate solution containing 25 μmol/L Boc-Phe-Ser-Arg-MCA (Peptide Institute, Osaka, Japan) was added to the plate. Then, 6 mU/mL human trypsin was added to the plate and incubated at room temperature for 60 min. The fluorescence at an excitation wavelength of 360 nm and an emission wavelength of 460 nm was detected using an EnVision multilabel plate reader.

The target in a further data set is human kallikrein. Briefly: Human kallikrein enzyme assay. The data set is classed as biochemical. The conditions noted are these: supplementary csv. The method, then:
Recombinant human kallikrein (R&D Systems, MN, USA) was activated by thermolysin (R&D Systems, MN, USA) prior to use. Compounds were dissolved in DMSO and then diluted in an assay buffer [50 mmol/L Tris–HCl (pH 7.5), 150 mmol/L NaCl, 10 mmol/L CaCl2, and 0.01% (w/v) Tween 20]. After 5 μL of compound solution was added to a 384-well black plate, 5 μL of substrate solution containing 150 μmol/L Pro-Phe-Arg-AMC (Peptide Institute, Osaka, Japan) was added to the plate. Then, 0.42 nmol/L human kallikrein was added to the plate and incubated at room temperature for 60 min. The fluorescence at an excitation wavelength of 380 nm and an emission wavelength of 460 nm was detected using a SpectraMax Paradigm plate reader.

The subject of data set [3] is C5b-9 MAC formation induced by human serum. Briefly: C5b-9 MAC complex formation study (Wieslab classical pathway kit). The note with it: in vitro, dose-dependent. The data set is classed as biochemical. How it is done: The levels of the complement activation product C5b-9 MAC were determined by a Wieslab complement system classical pathway kit (Svar Life Science, Malmo, Sweden). Briefly, diluted human serum was preincubated with the reagent diluent containing 0.3% DMSO or a range of concentrations of C1s inhibitors for 10 min at room temperature. Then, the preincubated serum was added to each well, and the plate was incubated for 30 min at 37 ° C with a lid. The plate was then washed three times, and subsequent processes were conducted by following the manufacturer’s instructions. Lastly, the absorbance was measured with a Multiskan microplate photometer (Thermo Fisher Scientific, MA, USA), and the levels of complement activation were calculated based on the standard curve generated with calibrators with serially diluted human serum. The samples with serum treatment were set as 100%, and the activities of the negative control (NC) without the addition of serum were set as 0%.

Like-named read-outs stand apart in the source and are kept apart here.

With `Cc1cc([C@H]2CN(c3cc(F)c4c(N)nncc4c3)CCN2c2cccc(F)c2)no1` [Compound (R)-8, 8-Fluoro-6-[(3R)-4-(3-fluorophenyl)-3-(5-methyl-1,2-oxazol-3-yl)piperazin-1-yl]phthalazin-1-amine], the “MDR1 (A to B)” value in data set [1] worked out at 14 nm/s. Further, the apparent permeability from apical to basolateral (Papp A→B) (as a rule, the apparent permeability from the apical to the basolateral side of a cell layer) at 2 h, 1 μmol/L on MDR1 (P-gp) is 1.4 ×10⁻⁶ cm/s. In addition, in data set [2] (10 mg/kg), the AUC0-24h amounted to 6017.8 ± 390.4 ng·h/mL; the Cmax (commonly the maximum level reached in the sampled fluid or tissue) is 1032.5 ± 173.0 ng/mL; the MRT – broadly, a mean duration of stay, worked out from the concentration-time curve – was 4.31 ± 0.23 h; the concentration at 2 h is 560 ± 106 ng/g. In data set [2] (10 mg/kg), the Kp at 2 h came out at 0.7 and the concentration at 24 h worked out at 5.2 ± 0.2 ng/g. In data set [2] (30 mg/kg), this molecule registered an AUC0-24h of 21928.6 ± 1428.2 ng·h/mL, a Cmax of 2583.3 ± 267.1 ng/mL, a mean residence time MRT of 5.02 ± 0.18 h and a concentration at 2 h of 3830 ± 935 ng/g. Besides, in data set [2] (30 mg/kg), the Kp at 2 h was determined as 1.7 and the concentration at 24 h amounted to 8.9 ± 3.8 ng/g. In data set [2] (100 mg/kg), the AUC0-24h stood at 139341.0 ± 36760.1 ng·h/mL, the Cmax is reported as 8895.5 ± 1516.8 ng/mL, the MRT was found to be 7.66 ± 0.99 h and the concentration at 2 h stood at 33600 ± 19300 ng/g. In addition, in data set [2] (100 mg/kg), the Kp at 2 h turned out to be 6 and the concentration at 24 h worked out at 1860 ± 2400 ng/g. The IC50 (as a rule, the concentration that gives 50% inhibition) against human factor D is greater than 30 µM. Further, on human trypsin, the IC50 is greater than 30 µM. Besides, at human kallikrein, the IC50 was greater than 30 µM. Besides, the “Inhibition of MAC formation induced by human serum” value in data set [3] is on record as “significantly inhibited”.
